Reference: US10478497B2, “Combinations of inecalcitol with an anti-CD38 agent and their uses for treating cancer” (HYBRIGENICS SA., priority 2016, dated 2019)

How the values were obtained:
Type in all cases: cell-based, human
[1] = tested on: L-428 classical Hodgkin lymphoma cell line; test: CD38 expression by flow cytometry on L-428 cells
Excerpt: (§1) HL-60 acute promyelocytic leukemia cell line was purchased from ECACC (cat. 98070106), U-937 hystiocytic lymphoma cell line and MM.1S multiple myeloma cell line were purchased from ATCC (cat. CRL-2974 and cat CRL-1593,2, respectively), L-363 multiple myeloma cell line, L-428 classical Hodgkin lymphoma cell line and RS4,11 B-acute lymphoblastic leukemia cell lines were purchased from DSMZ (plasma cell leukemia, cat. ACC 49, cat. ACC 197 and cat. ACC 508, respectively). All cells were maintained in RPMI Medium 1640—GlutaMAX™ (Gibco 61870) except the RS4,11 cells in alpha-MEM Medium (Gibco 12571-063), supplemented with 10% heat inactivated charcoal stripped fetal bovine serum. All culture media were supplemented with 100 units/ml penicillin and 0.1 mg/ml streptomycin, and cell lines were cultured at 37° C. in a humidified atmosphere containing 5% CO2.
(§2) Cells were treated for 72 h with various concentrations of inecalcitol (Hybrigenics, Paris, France) before labelling with fluorescent anti-human CD38 FITC (eBioscience, Vienna, Austria, cat. 11-0389-41) or the matched isotype control: mouse IgG1 K FITC (eBioscience, Vienna Austria, cat. 11-4714-41) for 1 h at 4° C. in native buffer (PBS, 2% BSA, 0.1% sodium azide). After cell wash, fluorescence was measured on an ACEA NovoCyte Flow Cytometer.

[2] = tested on: HL-60 acute promyelocytic leukemia cell line; test: CD38 expression by flow cytometry on HL-60 cells
Excerpt: as §1, §2

[3] = tested on: U-937 hystiocytic lymphoma cell line; test: CD38 expression by flow cytometry on U-937 cells
Excerpt: as §1, §2

[4] = tested on: MM.1S multiple myeloma cell line; test: CD38 expression by flow cytometry on MM.1S cells
Excerpt: as §1, §2

[5] = tested on: L-363 multiple myeloma cell line; test: CD38 expression by flow cytometry on L-363 cells
Excerpt: as §1, §2

[6] = tested on: RS4,11 B-acute lymphoblastic leukemia cell line; test: CD38 expression by flow cytometry on RS4,11 cells
Excerpt: as §1, §2

C[C@H](CC#CC(C)(C)O)[C@H]1CC[C@@H]2/C(=C/C=C3C[C@@H](O)C[C@H](O)C3)CCC[C@@]21C [inecalcitol, 14epi-, 19nor-, 23yne-, 1,25dihydroxy-cholecalciferol]
effect on CD38 expression (fold increase of CD38 mean fluorescent signal), in words ([1]; FIG. 5, classical Hodgkin lymphoma cell line, dose dependent): enhances CD38 expression
increase in fluorescent labelling (CD38) ([1]; L-428 cells, 72 h treatment): 2 fold
EC50 ([1]; L-428 cells, 72 h treatment, anti-human CD38 FITC flow cytometry, read-out: concentration which triggered 50% of the maximum CD38 induction (EC50)): 0.23 nM
effect on CD38 expression (fold increase of CD38 mean fluorescent signal), in words ([2]; FIG. 4, HL-60 cell line, dose dependent): enhances CD38 expression
EC50 ([2]; HL-60 cells, 72 h treatment, anti-human CD38 FITC flow cytometry, read-out: concentration which triggered 50% of the maximum CD38 induction (EC50)): 0.43 nM
effect on CD38 expression (fold increase of CD38 mean fluorescent signal), in words ([3]; FIG. 3, U-937 cell line, dose dependent): enhances CD38 expression
maximal increase in fluorescent labelling (CD38) ([3]; U-937 cells, 72 h treatment): 5 fold
EC50 ([3]; U-937 cells, 72 h treatment, anti-human CD38 FITC flow cytometry, read-out: concentration which triggered 50% of the maximum CD38 induction (EC50)): 0.57 nM
effect on CD38 expression (fold increase of CD38 mean fluorescent signal), in words ([4]; FIG. 1, MM.1S cell line, dose dependent): enhances CD38 expression
EC50 ([4]; MM1.S, MM.1s cells, 72 h treatment, anti-human CD38 FITC flow cytometry, read-out: concentration which triggered 50% of the maximum CD38 induction (EC50)): 0.49 nM
maximal increase in fluorescent labelling (CD38) ([4]; MM.1s cells, 72 h treatment): 5 fold
effect on CD38 expression (fold increase of CD38 mean fluorescent signal), in words ([5]; FIG. 2, L-363 cell line, dose dependent): enhances CD38 expression
maximal increase in fluorescent labelling (CD38) ([5]; L-363 cells, 72 h treatment): 5 fold
EC50 ([5]; L-363 cells, 72 h treatment, anti-human CD38 FITC flow cytometry, read-out: concentration which triggered 50% of the maximum CD38 induction (EC50)): 4 nM
effect on CD38 expression (fold increase of CD38 mean fluorescent signal), in words ([6]; FIG. 6, RS4.11 cell line, dose dependent): enhances CD38 expression
increase in fluorescent labelling (CD38) ([6]; RS4,11 cells, 72 h treatment): 2.5 fold
EC50 ([6]; RS4,11 cells, 72 h treatment, anti-human CD38 FITC flow cytometry, read-out: concentration which triggered 50% of the maximum CD38 induction (EC50)): 0.55 nM
